Experimental data from patent publication EP4653006A1, “NOVEL MIXTURE OF ACTIVE INGREDIENTS, COMPOSITIONS CONTAINING THEM, AND THEIR USE AGAINST ALLERGY AND/OR INFLAMMATION” (Global Pharmacies Partner S.R.L. in Forma Abbreviata G.P.P. …, priority 2024, dated 2025).

Tests used:
RBL-2H3 cells = test: degranulation (β-hexosaminidase release) in sensitized/stimulated RBL-2H3 cells; format: cell-based, rat; settings: positive control 20 µM
Procedure: The antiallergic activity of the tested sample of mixture M was evaluated by measuring its ability to prevent degranulation processes in a rat leukemia cell line (RBL-2H3), widely used as a model simulating mast cells in immunological and allergological studies.
(§1) The RBL-2H3 cells were first sensitized and then stimulated to induce degranulation.
The test was conducted on RBL-2H3 cells grown in DMEM (Dulbecco's modified Eagle medium) containing 10% fetal bovine serum (FBS) and 1% antibiotics (penicillin and streptomycin) and incubated in standard culture conditions (37°C, 5% CO2). […]
The medium was then recovered and separated from the cells and incubated with 4-nitrophenyl-N-acetyl-β-D-glucosamide. The reaction was stopped with carbonate buffer and the absorbance was measured by spectrophotometric reading at 405 nm. Degranulation was calculated as the percentage of β-hexosaminidase relative to non-sensitized (NS) cells as follows: Degranulation (%) = (ODX)/(ODNS)⋅100 [formula]
The measured absorbance (optical density, OD) is directly proportional to the amount of β-hexosaminidase present in the analyzed fluids, which in turn correlates positively with the levels of histamine released during the degranulation phase and is therefore an indicative marker of the degranulation process. […] The values are expressed as means ± standard deviation. […]

TNFα = TNFα release by ELISA in sensitized/stimulated RBL-2H3 cells; format: cell-based, rat; settings: positive control 20 µM
Procedure: The anti-inflammatory action was instead evaluated, always in the same cell line, by measuring the ability of the sample to inhibit the release of tumor necrosis factor alpha (TNFα).
as §1
The test was conducted on RBL-2H3 cells grown in DMEM (Dulbecco's modified Eagle medium) containing 10% fetal bovine serum (FBS) and 1% antibiotics (penicillin and streptomycin) and incubated in standard culture conditions (37°C, 5% CO2). RBL-2H3 cells are widely used in allergy and immunology research, as, like mast cells, they express FCεRI and, following cross-linking between IgE bound to FCεRI and allergens, they undergo degranulation. In this way, therefore, they simulate the behavior of mast cells and basophils in their response to an immunological stimulus.
The supernatant recovered from the cells was also used for the dosage of TNFα performed by ELISA (Enzyme-Linked Immunosorbent Assay), a very widespread biochemical technique used for the quantification of proteins and peptides. In an ELISA assay, a specific […] for TNFα is immobilized on a solid surface (the bottom of a well) to which the assay medium is added. Detection is done by means of a biotinylated secondary antibody and then reacted with streptavidin-HRP. The colorimetric reaction is proportional to the amount of TNFα present. The results are read by spectrophotometer at 450 nm. The values obtained were then interpolated into a standard curve of TNFα.
The absorbance (optical density, OD) measured at 450 nm is directly proportional to the amount of TNFα produced by the tissues. To calculate the concentrations of TNFα, the OD values obtained were interpolated into a standard curve of TNFα. The percentages were calculated with respect to the non-sensitized and non-stimulated cells (NS). The values are expressed as means ± standard deviation. Statistical processing of the data was performed by Student's t-test. Values of p<0.05 are considered significant. […]

## C=C1CC[C@H]2C(=C)CC[C@H]3C(=C)C(=O)O[C@@H]3[C@@H]12 [PC, Dehydrocostolactone]
RBL-2H3 cells
  protection (% vs NC), reduction in degranulation: 80.8%
RBL-2H3 cells; anti-DNP IgE / DNP-HSA, NC = 1,274.6
  β-hexosaminidase (% vs NS): 244.8%
TNFα
  protection (% vs NC), reduction in TNFα release: 19.5%
TNFα; NC = 227.8
  TNFα (% vs NS): 183.4%
TNFα; NC = 248.8
  TNFα: 200.3 pg/mL
